US9416181B2, “Compositions for cell culture and methods of using the same” (AbbVie Inc., priority 2013, dated 2016)

What was measured:
Format in all cases: cell-based, Chinese Hamster
[1] = test system: Cell Line 1 (CHO) expressing Antibody 1; experiment: Cell culture performance (cell growth, viability, titer), Cell Line 1 shake flask fed-batch culture; details: for cell growth profile vs unsupplemented control: 3 concentrations in CDFM up to 0.5 g/L (genistein) or 1 g/L (rutin, naringin); for cell growth profile vs unsupplemented control / relative harvest titer vs unsupplemented control: shake flask
Protocol: (§1) A recombinant Chinese Hamster Ovary (CHO) cell line (Cell Line 1) expressing a humanized monoclonal antibody (Antibody 1) was evaluated in 2 different cultures vessels (shaker flasks and 3 L laboratory-scale bioreactors). The cell line was of CHO DUX-B11 origin based on a DHFR (dihydrofolate reductase) expression system and cultured in a chemically defined basal media, and fed periodically with a chemically-defined feed media (CDFM). The media utilized throughout all of the experiments were chemically-defined, and both animal-component free, and protein-free. Each of the respective media were supplemented as needed with selected bioflavonoids to evaluate for their potential impact on the resulting acidic species profile. In preparation of the cultures, the cell lines were serially expanded through separate seed train inoculums to generate enough cells for inoculation. Process conditions utilized during the cultures were slightly different depending on the culture scale, but similar within each scale to the respective non-bioflavonoid supplemented control conditions. All bioflavonoids utilized were purchased from Sigma-Aldrich (St. Louis, Mo.).
(§2) Viable cell density (VCD) and cell viability values were measured through trypan blue exclusion via Cedex automated cell counters (Roche Applied Science, Indianapolis, Ind.), glucose and lactate values were measured with a ABL-805 (Radiometer Medical, Denmark) blood gas analyzer. Offline pH, dissolved oxygen (DO), and pCO2 measurements were performed as needed with an ABL-805 (Radiometer Medical, Denmark) blood gas analyzer. Osmolality was measured as needed on a Multi-Osmette 2430 osmometer (Precision Systems, Natick, Mass.).
Antibody titers were measured from crude cell culture harvests on a Poros A™ (Life Technologies, Carlsbad, Calif.) affinity column using an HPLC system operating with a low pH, step elution gradient with detection at 280 nm. Absolute concentrations were assigned with respect to reference standard calibration curves.
(§3) In this Example, EGCG was added into the feed (cell culture medium) at the concentration range of 5 mg/L (low), 20 mg/L (mid) and 50 mg/L (high) in a shaker experiment to determine the impact of EGCG on product quality of a humanized monoclonal antibody (Antibody 1). Detailed cell culture conditions are as described in Table 1.
(§4) However, it was not clear whether or not additional bioflavonoids would also have the same effects. To evaluate the impact of alternative bioflavonoids, fed-batch shake flask cultures were initiated with CDFM supplemented with 3 different concentrations of genistein, rutin, and naringin, in addition to EGCG. Cell growth, viability, as well as titers and acidic species variants were measured.
(§5) To evaluate the impact of other bioflavonoids, fed-batch shake flask cultures were initiated with CDFM supplemented with multiple concentrations of rutin. Cell growth, viability, as well as titers and acidic species variants were measured and shown in FIGS. 14 and 15, respectively.

[2] = test system: Cell Line 1 (CHO) expressing Antibody 1; experiment: Acidic species variants (WCX-10) of Antibody 1, Cell Line 1 shake flask fed-batch culture; details: shake flask
Protocol: as §1
(§6) Samples were analyzed using an HPLC system equipped with a ProPac WCX-10 analytical column (Thermo Scientific, Sunnyvale, Calif.). Approximately 100 μg of sample was loaded in 6% Buffer B (10 mM sodium phosphate, 500 mM NaCl, pH 5.5) and 94% Buffer A (10 mM sodium phosphate, pH 7.5). The column was run at a flow rate of 1.0 mL/min. The protein was eluted from the column by increasing the buffer B composition from 6% to 16% over 20 minutes. The protein peaks were measured using UV absorbance at 280 nm as the peaks eluted from the column. The column was regenerated using 100% buffer B followed be a re-equilibration period using initial condition before the injection of the next sample. Peaks eluting before the main peak were termed “acidic peaks” and peaks eluting after the main peak were called “basic peaks” (FIG. 2).
as §3, §4
(§7) Charge Heterogeneity via Weak Cation Exchange Chromatography-Samples were analyzed using an HPLC system equipped with a ProPac WCX-10 analytical column (Thermo Scientific, Sunnyvale, Calif.). Approximately 100 μg of sample was loaded in 6% Buffer B (10 mM sodium phosphate, 500 mM NaCl, pH 5.5) and 94% Buffer A (10 mM sodium phosphate, pH 7.5). The column was run at a flow rate of 1.0 mL/min. The protein was eluted from the column by increasing the buffer B composition from 6% to 16% over 20 minutes. The protein peaks were measured using UV absorbance at 280 nm as the peaks eluted from the column. The column was regenerated using 100% buffer B followed be a re-equilibration period using initial condition before the injection of the next sample. Peaks eluting before the main peak were termed ‘acidic peaks’ and peaks eluting after the main peak were called ‘basic peaks’ (FIG. 2).
as §5

[3] = test system: Cell Line 1 (CHO) expressing Antibody 1; experiment: Acidic species variants (WCX-10) of Antibody 1, Cell Line 1 3 L bioreactor fed-batch culture; details: 0.1 g/L in CDFM, Day 15 harvest
Protocol: as §1, §6
In the next experiment, lab-scale bioreactors were used to (1) confirm the shaker experiment results and (2) to determine whether higher concentration range of EGCG is suitable for supplementing into cell culture. EGCG was added to the feed of the batch culture at the concentrations of 20 mg/L (mid), 50 mg/L (high) and 125 mg/L (high+) and 250 mg/L (high++) in this reactor experiment.
Cell Line 1 was evaluated in larger-scale feed batch cultures with the feed media supplemented with various bioflavonoids. […] By contrast, cell growth performance was slightly different for the 0.1 g/L EGCG supplemented condition. […] However, the cell viability remained high at 0.1 g/L EGCG. All cultures were successfully harvested on Day 15 post-inoculation. The harvest titers measured from the evaluated cultures were similar.
Cell Line 1 was also evaluated in laboratory-scale fedbatch cultures with the feed media supplemented with various bioflavonoids. […] Cell growth performance was slightly different however with the 0.1 g/L EGCG supplemented condition. […] All cultures were able to be successfully harvested on Day 15 post-inoculation.

[4] = test system: Cell Line 4 (CHO) expressing DVD2
Protocol: (§8) Four different recombinant Chinese Hamster Ovary (CHO) cell lines expressing four different recombinant glycoproteins were evaluated in either shaker flask culture, or 3 L laboratory scale bioreactors. Cell Line 1 was genetically engineered to express Antibody 1, Cell Line 2 was genetically engineered to express Antibody 2, Cell Line 3 was genetically engineered to express dual variable domain immunoglobulin 1 (DVD1) and Cell Line 4 was genetically engineered to express dual variable domain immunoglobulin 2 (DVD2).
as §2, with “pCO2 (Dissolved carbon dioxide)” for “pCO2”
Protein A Affinity Chromatography-Antibody titers were measured from crude cell culture harvests on a Poros ATM (Life Technologies, Carlsbad, Calif.) affinity column using an HPLC system operating with a low pH, step elution gradient with detection at 280 nm. […]

[5] = test system: Cell Line 4 (CHO) expressing DVD2; experiment: Acidic species variants (WCX-10), Cell Line 4 shake flask culture
Protocol: as §8
as §7, with “The column was regenerated using 100% buffer B followed be a re-equilibration period using initial condition before the injection of the next sample. Peaks eluting before the main peak were termed ‘acidic peaks’ and peaks eluting after the main peak were called ‘basic peaks’ (FIG. 2).” left out
as §5

Compound	cell growth profile vs unsupplemented control [1]	ratio of acidic region to unsupplemented control ([2]; 0.1 g/L in CDFM)	ratio of acidic region to unsupplemented control ([2]; 1 g/L in CDFM)	concentration above which peak viable cell density dropped lower than unsupplemented control [1]	relative harvest titer vs unsupplemented control ([1]; 0.01 g/L in CDFM)	relative harvest titer vs unsupplemented control ([1]; 0.1 g/L in CDFM)	relative harvest titer vs unsupplemented control ([1]; 1 g/L in CDFM, statistically significant)	drop in harvest titer ([1]; CDFM supplemented to 1 g/L, Cell Line 1)	harvest cell viability ([1]; Chinese hamster, 1 g/L) [%]	drop in absolute acidic species percentage points ([3]; 3 L bioreactor) [%]	relative total AR (ratio to Day 8 value of unsupplemented control) ([3]; bioreactor)	concentration above which peak viable cell density dropped lower than unsupplemented control [4] [µg/mL]	increase in harvest titer ([4]; CDFM supplemented to 1 g/L, Cell Line 4) [%]	ratio of acidic region to unsupplemented control ([5]; 0.1 g/L in CDFM)	ratio of acidic region to unsupplemented control ([5]; 1 g/L in CDFM)
O=c1c(-c2ccc(O)cc2)coc2cc(O)cc(O)c12 [genistein]	lower than the unsupplemented control condition	–	–	–	–	–	–	–	–	–	–	–	–	–	–
C[C@@H]1O[C@@H](OC[C@H]2O[C@@H](Oc3c(-c4ccc(O)c(O)c4)oc4cc(O)cc(O)c4c3=O)[C@H](O)[C@@H](O)[C@@H]2O)[C@H](O)[C@H](O)[C@H]1O [rutin]	–	0.97	0.65	higher than 0.05 g/L	0.98	0.93	0.78	at most 22%	76	5	1.00	> 100	9	0.75	0.69
C[C@@H]1O[C@@H](O[C@H]2[C@H](Oc3cc(O)c4c(c3)O[C@H](c3ccc(O)cc3)CC4=O)O[C@H](CO)[C@@H](O)[C@@H]2O)[C@H](O)[C@H](O)[C@H]1O [naringin]	lower than the unsupplemented control condition	–	–	–	–	–	–	–	–	–	–	–	–	–	–
